Where “and” joins values, the source holds several entries; their conditions need not be identical. Identical values can stand only once. Calls of active or inactive are those of the source.
Columns and labels:
[1] = molecular target: Paired box protein Pax-8 (Homo sapiens, UniProt Q06710); test: inhibitors of PAX8-driven TPO luciferase reporter, dose response, RMG-I cells, cherry-pick (AID 687027); assay type: functional, cell-based;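 note: luciferase reporter driven by Pax8 target thyroperoxidase promoter measured by SteadyGlo luminescence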
Paired box protein Pax-8, sequence (Q06710 whole entry): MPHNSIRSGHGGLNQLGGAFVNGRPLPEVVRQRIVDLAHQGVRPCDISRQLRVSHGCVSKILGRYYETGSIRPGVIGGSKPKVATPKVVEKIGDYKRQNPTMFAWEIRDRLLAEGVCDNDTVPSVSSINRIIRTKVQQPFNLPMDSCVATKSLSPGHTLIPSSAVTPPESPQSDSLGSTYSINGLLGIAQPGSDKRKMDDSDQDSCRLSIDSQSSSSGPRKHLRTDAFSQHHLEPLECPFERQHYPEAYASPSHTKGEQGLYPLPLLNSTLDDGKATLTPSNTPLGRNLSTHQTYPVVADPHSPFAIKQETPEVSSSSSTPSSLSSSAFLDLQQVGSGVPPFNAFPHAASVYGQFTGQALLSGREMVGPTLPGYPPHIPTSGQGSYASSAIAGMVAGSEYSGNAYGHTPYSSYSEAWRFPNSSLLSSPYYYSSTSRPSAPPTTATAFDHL

[2] = HEp-2 cell cytotoxicity, dose response, cytotoxicity control for RSV inhibitor project, HTS (AID 2410); assay type: functional; conditions: human respiratory syncytial virus
[3] = molecular target: T1, Heat shock factor protein 1 (Mus musculus, UniProt P38532); test: HSF1 potentiators in luciferase reporter cells, confirmation, cell-based, NIH3T3, luminescence, dose retest (AID 435004); assay type: functional;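 note: stress induced by proteasome inhibitor MG132 added 30 min after compound; luciferase reporter driven by HSF1 response element in NIH3T3 cells; actives raise luminescence as potentiators of the MG132 stress response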
T1 sequence (P38532 whole entry): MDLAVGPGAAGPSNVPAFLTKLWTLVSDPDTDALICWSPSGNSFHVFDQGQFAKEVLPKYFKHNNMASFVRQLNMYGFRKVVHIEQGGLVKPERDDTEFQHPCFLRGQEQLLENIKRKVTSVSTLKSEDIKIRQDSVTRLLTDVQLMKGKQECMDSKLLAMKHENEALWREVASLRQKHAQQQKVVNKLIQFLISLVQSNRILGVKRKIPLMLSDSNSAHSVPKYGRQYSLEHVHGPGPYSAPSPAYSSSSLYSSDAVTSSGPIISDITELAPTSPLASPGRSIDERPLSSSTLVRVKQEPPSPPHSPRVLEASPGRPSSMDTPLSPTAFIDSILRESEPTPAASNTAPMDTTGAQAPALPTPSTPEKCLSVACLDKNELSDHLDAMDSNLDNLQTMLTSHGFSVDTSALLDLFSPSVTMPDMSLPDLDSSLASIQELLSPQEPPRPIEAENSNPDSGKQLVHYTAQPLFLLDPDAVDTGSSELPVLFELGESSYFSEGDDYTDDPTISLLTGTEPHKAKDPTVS

[4] = molecular target: Cytochrome P450 2C9 (Homo sapiens, UniProt P11712)
Cytochrome P450 2C9, sequence (P11712 whole entry): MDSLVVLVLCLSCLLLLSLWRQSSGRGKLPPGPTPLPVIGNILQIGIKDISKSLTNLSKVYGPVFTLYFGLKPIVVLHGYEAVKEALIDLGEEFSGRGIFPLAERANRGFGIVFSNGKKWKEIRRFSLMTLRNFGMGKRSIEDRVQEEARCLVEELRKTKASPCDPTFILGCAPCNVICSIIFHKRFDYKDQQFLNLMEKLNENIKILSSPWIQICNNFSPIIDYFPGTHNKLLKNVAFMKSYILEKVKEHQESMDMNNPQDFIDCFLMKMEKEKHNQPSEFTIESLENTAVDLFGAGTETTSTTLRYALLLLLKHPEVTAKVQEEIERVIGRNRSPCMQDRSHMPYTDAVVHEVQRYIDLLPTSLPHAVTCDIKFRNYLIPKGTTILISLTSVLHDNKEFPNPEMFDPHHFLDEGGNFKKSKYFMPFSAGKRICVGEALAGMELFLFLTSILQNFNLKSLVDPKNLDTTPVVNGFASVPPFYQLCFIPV

[5] = inhibitors of intracellular T. cruzi replication, confirmation, NIH3T3 host cells, beta-gal luminescence (AID 2044); assay type: functional, cell-based;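 note: intracellular parasites grown in NIH/3T3 mouse fibroblasts as host cells; luminescent beta-galactosidase reporter signal from transgenic T. cruzi replicating inside host cells; inhibitors lower the luminescence signal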
[6] = cytotoxicity toward NIH3T3 fibroblasts, dose response, counter-screen, cell-based, ATP luminescence, mouse fibroblasts (AID 2010); assay type: functional;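 note: cells exposed to compound for about 90 hours before reading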
[7] = molecular target: T2, Cytochrome P450 1A2 (Homo sapiens, UniProt P05177);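 note: PubChem cytochrome P450 panel assay, CYP1A2 panel member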
T2 sequence (P05177 whole entry): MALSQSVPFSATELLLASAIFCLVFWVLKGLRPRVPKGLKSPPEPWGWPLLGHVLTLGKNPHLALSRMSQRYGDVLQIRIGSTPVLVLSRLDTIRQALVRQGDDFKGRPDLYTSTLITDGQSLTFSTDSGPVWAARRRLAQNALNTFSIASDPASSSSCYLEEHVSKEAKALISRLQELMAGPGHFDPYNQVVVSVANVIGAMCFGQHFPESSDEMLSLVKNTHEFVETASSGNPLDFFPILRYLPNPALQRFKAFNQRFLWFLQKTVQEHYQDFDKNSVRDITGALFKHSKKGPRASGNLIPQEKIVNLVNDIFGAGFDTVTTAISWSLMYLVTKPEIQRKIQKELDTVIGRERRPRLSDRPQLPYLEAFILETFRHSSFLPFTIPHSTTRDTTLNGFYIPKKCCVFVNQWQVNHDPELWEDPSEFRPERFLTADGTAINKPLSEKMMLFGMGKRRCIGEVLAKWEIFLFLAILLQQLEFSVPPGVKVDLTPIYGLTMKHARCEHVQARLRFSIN

[8] = molecular target: Cytochrome P450 2C19 (Homo sapiens, UniProt P33261); test: Cytochrome panel assay with activity outcomes. Panel member name: p450-cyp2c19 Compounds with AC50 equal or less than 10 uM are considered active; assay type: functional; conditions: read-out: AC50
Cytochrome P450 2C19, sequence (P33261 whole entry): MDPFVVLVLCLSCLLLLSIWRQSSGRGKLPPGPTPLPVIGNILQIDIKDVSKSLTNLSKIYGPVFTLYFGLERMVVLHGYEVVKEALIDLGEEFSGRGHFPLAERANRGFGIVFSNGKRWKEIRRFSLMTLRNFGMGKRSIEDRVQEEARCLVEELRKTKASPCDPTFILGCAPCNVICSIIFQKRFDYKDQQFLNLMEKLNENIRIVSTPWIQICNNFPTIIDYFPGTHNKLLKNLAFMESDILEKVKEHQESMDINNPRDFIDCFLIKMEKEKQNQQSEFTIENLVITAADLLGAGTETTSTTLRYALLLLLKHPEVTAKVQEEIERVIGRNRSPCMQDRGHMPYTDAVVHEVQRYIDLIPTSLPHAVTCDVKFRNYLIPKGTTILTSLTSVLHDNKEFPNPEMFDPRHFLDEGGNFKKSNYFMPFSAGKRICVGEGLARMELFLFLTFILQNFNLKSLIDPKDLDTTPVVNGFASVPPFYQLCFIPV

[9] = molecular target: Cytochrome P450 3A4 (Homo sapiens, UniProt P08684);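 note: CYP3A4 tested as one member of a cytochrome P450 panel screen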
Cytochrome P450 3A4, sequence (P08684 whole entry): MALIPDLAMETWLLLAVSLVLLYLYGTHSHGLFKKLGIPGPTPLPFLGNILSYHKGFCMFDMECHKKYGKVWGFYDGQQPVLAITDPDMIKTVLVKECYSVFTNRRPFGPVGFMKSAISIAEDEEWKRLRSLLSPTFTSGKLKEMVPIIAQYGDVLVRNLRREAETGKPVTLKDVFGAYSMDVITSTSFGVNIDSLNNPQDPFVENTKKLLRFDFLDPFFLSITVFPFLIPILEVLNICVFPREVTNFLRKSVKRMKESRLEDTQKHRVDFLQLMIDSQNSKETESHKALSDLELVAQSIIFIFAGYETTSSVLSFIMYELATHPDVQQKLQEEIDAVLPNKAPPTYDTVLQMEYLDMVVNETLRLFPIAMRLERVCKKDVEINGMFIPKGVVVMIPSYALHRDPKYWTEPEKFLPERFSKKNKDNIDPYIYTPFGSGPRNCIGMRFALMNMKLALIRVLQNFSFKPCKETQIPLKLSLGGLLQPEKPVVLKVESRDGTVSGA

[10] = molecular target: T3, Corticotropin-releasing factor receptor 2/Corticotropin-releasing factor-binding protein (Homo sapiens, UniProt P24387+Q13324); test: Dose Response confirmation of uHTS hits for small molecule antagonists of the CRF-binding protein and CRF-R2 receptor complex.; assay type: functional; conditions: read-out: IC50_Mean
T3 sequence (Q13324 whole entry): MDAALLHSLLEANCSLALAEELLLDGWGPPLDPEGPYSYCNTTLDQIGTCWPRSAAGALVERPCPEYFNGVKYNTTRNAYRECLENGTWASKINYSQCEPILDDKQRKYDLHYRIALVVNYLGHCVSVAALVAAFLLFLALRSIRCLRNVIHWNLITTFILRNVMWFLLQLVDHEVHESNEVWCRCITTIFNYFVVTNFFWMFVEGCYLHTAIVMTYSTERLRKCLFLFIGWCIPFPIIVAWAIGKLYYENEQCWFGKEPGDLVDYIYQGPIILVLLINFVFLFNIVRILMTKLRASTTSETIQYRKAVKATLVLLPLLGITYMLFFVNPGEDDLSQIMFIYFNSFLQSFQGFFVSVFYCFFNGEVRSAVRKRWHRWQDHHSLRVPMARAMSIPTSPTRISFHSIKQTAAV
T3 sequence (P24387 whole entry): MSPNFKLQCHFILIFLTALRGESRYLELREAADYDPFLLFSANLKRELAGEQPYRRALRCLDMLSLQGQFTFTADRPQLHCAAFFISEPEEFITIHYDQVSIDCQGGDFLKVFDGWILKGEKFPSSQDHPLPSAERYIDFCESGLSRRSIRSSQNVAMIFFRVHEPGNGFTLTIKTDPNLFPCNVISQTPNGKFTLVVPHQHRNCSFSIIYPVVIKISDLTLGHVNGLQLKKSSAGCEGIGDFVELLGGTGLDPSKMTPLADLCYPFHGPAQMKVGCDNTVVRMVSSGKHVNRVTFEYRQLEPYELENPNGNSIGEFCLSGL

[11] = molecular target: T3, Corticotropin-releasing factor receptor 2/Corticotropin-releasing factor-binding protein; test: activators of CRF receptor 2 with binding protein – uHTS hits, confirmation (AID 602473); assay type: functional; conditions: read-out: EC50_Mean

Cc1ccc(C)c(CSC2=NCCN2C(=O)Cc2ccc([N+](=O)[O-])cc2)c1
AC50 [1]: 26.3 µM (active)

CC(=O)CSc1ncnc2sc3c(c12)CCC3
CC50 [2]: 32.7 µM (active)

C/C=C1\COC(C(=O)NCc2ccccc2)(C(F)(F)F)C=C1C=C(C)C (stereo not given)
EC50 [3]: > 260 µM (inactive)

Fc1ccc(CCNCc2ccc(Cl)c(Cl)c2)cc1
AC50 [4]: 17.8 µM (inconclusive)
EC50 [5]: 0.122 µM (active)
EC50 [6]: > 30 µM (not active)

Cc1ccc(C2CC(C(F)F)n3ncc(C(=O)Nc4c(C)nn(Cc5c(F)cccc5Cl)c4C)c3N2)cc1 (stereo not given)
CC50 [2]: 19.9 µM (active)

O=C(CCc1ccc(S(=O)(=O)NCc2ccccc2)cc1)NCc1cccnc1
AC50 [1]: 41.5 µM (active)

Cn1c(CNC(=O)Nc2ccccc2)nnc1SCc1ccccc1
AC50 [7]: 25.1 µM (inconclusive)

COC(=O)CSC(C(=O)Nc1ccc(C)c(C)c1)c1ccccc1 (stereo not given)
AC50 [8]: 0.398 µM (inconclusive)
AC50 [7]: 8.91 µM (inconclusive)

Cc1ccc(/C=C/c2nnc(-c3ccc(C)cc3)o2)cc1
AC50 [4]: 5.62 µM (inconclusive)
AC50 [9]: 10 µM (inconclusive)
AC50 [7]: 4.47 µM (inconclusive)

O=C(COC(=O)C1CCN(S(=O)(=O)c2cccc3cccnc23)CC1)c1ccc([N+](=O)[O-])cc1
EC50 [3]: > 260 µM (inactive)

CCN=C(S)NNC(=O)c1csc2c1CCCC2
CC50 [2]: 17.9 µM (active)

CC(C)Oc1cc(-n2c(=S)[nH]c3ccccc3c2=O)c(Cl)cc1Cl
AC50 [7]: 12.6 µM (inconclusive)

Fc1ccccc1OCCCCCCN1CCCC1
AC50 [4]: 39.8 µM (inconclusive)
AC50 [8]: 39.8 µM (inconclusive)
AC50 [9]: 17.8 µM (inconclusive)
AC50 [7]: 17.8 µM (inconclusive)

CC(C)NC(=O)c1onc(CSc2cccc3ccccc23)c1C(=O)O
CC50 [2]: 12.6 µM (active)

COc1ccc(/C=C(\C#N)C(=O)OCC(=O)Nc2ccc(-c3nc4ccc(C)cc4s3)cc2)cc1
CC50 [2]: 18.6 µM (active)

CCOC(=O)C(C)n1cnc2c(oc3ccccc32)c1=O (stereo not given)
AC50 [4]: 28.2 µM (inconclusive)
AC50 [8]: 31.6 µM (inconclusive)

Cn1cccc1C(=O)N1CCC2(CCCN(c3ccncc3)C2)CC1
AC50 [4]: 25.1 µM (inconclusive)

Cc1nc(SCCOc2ccc(F)cc2)c2ccccc2n1
EC50 [3]: 38.7 µM (active)

COC(=O)[C@@]1(Cc2ccc(OC)cc2)[C@H]2c3cc(C(=O)N4CCCC4)n(CCN4CCOCC4)c3C[C@H]2CN1C(=O)c1ccccc1
AC50 [4]: 31.6 µM (inconclusive)
AC50 [8]: 31.6 µM (inconclusive)

O=C1C2CC=CCC2C(=O)N1Cc1nnc(-c2ccc(Cl)cc2)o1 (stereo not given)
EC50 [3]: 39.1 µM (active)

O=C(Nc1cc2c(oc1=O)CCCC2=O)c1ccc(Cl)cc1
AC50 [7]: 14.1 µM (inconclusive)

COc1ccc(NC(=O)N2CC[C@@]3(CCCN(C(=O)c4ccc(OC)cc4)C3)C2)cc1
AC50 [4]: 12.6 µM (inconclusive)
AC50 [7]: 25.1 µM (inconclusive)

COc1cccc(CNC(=O)Cn2nc(C)c([N+](=O)[O-])c2C)c1
EC50 [3]: > 260 µM (inactive)

Cc1ccc(NC2=NC(N)=NC3(CCCC3)N2)c(C)c1
EC50 [3]: > 260 µM (inactive)

C=C(C)Cn1c(SCC(=O)O)nnc1-c1ccc(OC)cc1
EC50 [3]: > 260 µM (inactive)

CSCCC(NS(=O)(=O)c1cccc(C(F)(F)F)c1)C(=O)N(C)CCOc1ccc(Cl)cc1 (stereo not given)
EC50 [3]: > 260 µM (inactive)

CN(C)c1c([N+](=O)[O-])ncn1C
IC50 [10]: > 47.1 µM (inactive)
EC50 [11]: > 53 µM (inactive)

CCOC(=O)COc1cc(OCC(=O)OCC)c2c(=O)cc(-c3ccccc3)oc2c1
AC50 [7]: 15.8 µM (inconclusive)

Clc1ccc(OCCn2c(-c3ccco3)nc3ccccc32)cc1
EC50 [3]: 12 µM (active)

O=[N+]([O-])c1ccc(NC(S)=NC(=NCS(=O)(=O)c2ccccc2)c2ccccc2)cc1
CC50 [2]: 11.1 µM (active)

Cc1ccc([N+](=O)[O-])cc1NC(=O)CN(C)CCOc1ccccc1
CC50 [2]: 24.3 µM (active)

CC[C@H](C(=O)c1cccs1)C(O)(C(F)(F)F)C(F)(F)F
AC50 [4]: 7.94 µM (inconclusive)
AC50 [8]: 2 µM (inconclusive)

Cn1c(=O)c(CCc2ccccc2)nc2cnc(Nc3ccccc3)nc21
AC50 [4]: 10 µM (inconclusive)
AC50 [9]: 12.6 µM (inconclusive)
AC50 [7]: 1.26 µM (inconclusive)

COc1ccc2nc(-c3ccccc3)cc(OC)c2c1
CC50 [2]: > 50 µM (active)

Cc1cc(C)cc(OCC(=O)O/N=C(\N)Cc2ccc([N+](=O)[O-])cc2)c1
EC50 [3]: > 260 µM (inactive)

Cc1ccc(CS(=O)(=O)CCC(=O)NCc2cccs2)cc1
AC50 [4]: 5.01 µM (inconclusive)
AC50 [7]: 15.8 µM (inconclusive)

CCOC(=O)c1c(C)[nH]c(C)c1S(=O)(=O)N1CCN(c2ccc(F)cc2)CC1
EC50 [3]: > 260 µM (inactive)

Oc1ccc(C[C@H]2CNC(=S)N2CC2CCCN2C[C@H](Cc2ccc(O)cc2)N2C[C@H](Cc3ccccc3)N(CC3CCCCCC3)C2=S)cc1 (stereo not given in full)
AC50 [1]: 9.86 µM (active)

COc1ccc(NS(=O)(=O)c2cccc(C(=O)N(C)Cc3ccc(SC)cc3)c2)cc1
EC50 [3]: > 260 µM (inactive)

OC[C@@H](O)C1OC2N=C(S)OC2C1O (stereo not given in full)
EC50 [3]: > 260 µM (inactive)

COC(=O)C(NC(=O)c1ccc(Cl)cc1)(Nc1nc(C)cs1)C(F)(F)F (stereo not given)
AC50 [7]: 28.2 µM (inconclusive)

COc1cc(-c2cnc3c(NC=O)cc(-c4ccccc4)cn23)cc(OC)c1OC
AC50 [1]: 2.79 µM (active)

Cn1nc(N)c2ncc(C(Cl)(Cl)Cl)nc21
IC50 [10]: > 47.1 µM (inactive)
EC50 [11]: > 53 µM (inactive)

CCOC(=O)/C(=N/Nc1ccc(Cl)cc1)Sc1nnnn1-c1ccc(C)cc1
EC50 [3]: > 260 µM (inactive)

C[C@H](CO)N1C[C@H](C)[C@H](CN(C)Cc2ccc(Cl)c(Cl)c2)OCCCC[C@H](C)Oc2ccc(NC(=O)NC3CCCCC3)cc2C1=O
AC50 [1]: 11.7 µM (active)

Cc1ccc(S(=O)(=O)Nc2ccc3c(c2)C(=O)N([C@@H](C)CO)C[C@@H](C)[C@@H](CN(C)S(=O)(=O)c2ccc(Cl)cc2)OCCCC[C@@H](C)O3)cc1
AC50 [1]: 10.4 µM (active)

Cc1nn(-c2ccccc2)c(-c2ccccc2)c1C(=O)O
AC50 [4]: 1.12 µM (inconclusive)
AC50 [8]: 5.01 µM (inconclusive)
AC50 [7]: 25.1 µM (inconclusive)

CC(C)(C)c1ccc(C(=O)Nc2ccc(S(N)(=O)=O)cc2)cc1
CC50 [2]: 20.1 µM (active)

N#Cc1nc(NCC(F)F)nc(Nc2cc(F)cc(F)c2)n1
AC50 [1]: 5.01 µM (active)

N=C(N)NC(=O)c1nc(Cl)c(N)nc1N [AMILORIDE]
AC50 [7]: 39.8 µM (inconclusive) and 12.6 µM (inconclusive)

Cc1ncsc1CCCl [CLOMETHIAZOLE]
AC50 [4]: 2.51 µM (inconclusive)
